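Here, GI50 denotes the concentration required for 50% inhibition of growth. Definition used: TGI = concentration required for complete inhibition of growth.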
What was measured:
Assay in all cases: NCI-60 cell line screen, 384-well format
[1] = test system: A498 renal
[2] = test system: A549 NSCLC
[3] = test system: ACHN renal
[4] = test system: BT-549 breast
[5] = test system: CAKI-1 renal
[6] = test system: COLO 205 colon
[7] = test system: DU-145 prostate
[8] = test system: EKVX NSCLC
[9] = test system: HCC-2998 colon
[10] = test system: HCT-116 colon
[11] = test system: HCT-15 colon
[12] = test system: HL-60(TB) leukemia
[13] = test system: HOP-62 NSCLC
[14] = test system: HOP-92 NSCLC
[15] = test system: HS 578T breast
[16] = test system: HT29 colon
[17] = test system: IGROV1 ovarian
[18] = test system: KM12 colon
[19] = test system: LOX IMVI melanoma
[20] = test system: M14 melanoma
[21] = test system: MALME-3M melanoma
[22] = test system: MCF7 breast
[23] = test system: MDA-MB-231 breast
[24] = test system: MDA-MB-435 melanoma
[25] = test system: MDA-MB-468 breast
[26] = test system: MOLT-4 leukemia
[27] = test system: NCI-H226 lung
[28] = test system: NCI-H23 lung
[29] = test system: NCI-H322M lung
[30] = test system: NCI-H460 NSCLC
[31] = test system: NCI-H522 lung
[32] = test system: NCI/ADR-RES ovarian
[33] = test system: OVCAR-3 ovarian
[34] = test system: OVCAR-4 ovarian
[35] = test system: OVCAR-5 ovarian
[36] = test system: OVCAR-8 ovarian
[37] = test system: PC-3 prostate
[38] = test system: RPMI-8226 leukemia
[39] = test system: RXF 393 renal
[40] = test system: SF-268 CNS
[41] = test system: SF-295 CNS
[42] = test system: SF-539 CNS
[43] = test system: SK-MEL-28 melanoma
[44] = test system: SK-MEL-5 melanoma
[45] = test system: SK-OV-3 ovarian
[46] = test system: SN12C renal
[47] = test system: SNB-19 CNS
[48] = test system: SNB-75 CNS
[49] = test system: SR leukemia
[50] = test system: T-47D breast
[51] = test system: TK-10 renal
[52] = test system: U251 glioblastoma
[53] = test system: UACC-257 melanoma
[54] = test system: UACC-62 melanoma
[55] = test system: 786-0 renal
[56] = test system: SW-620 colon
[57] = test system: UO-31 renal

COC1CCN(C(=O)c2cc(Cc3n[nH]c(=O)c4ccccc34)ccc2F)CC1
GI50 [1]: > 100 µM | TGI [1]: > 100 µM | GI50 [2]: > 100 µM | TGI [2]: > 100 µM | GI50 [3]: > 100 µM | TGI [3]: > 100 µM | GI50 [4]: 84.6 µM | TGI [4]: > 100 µM | GI50 [5]: > 100 µM | TGI [5]: > 100 µM | GI50 [6]: > 100 µM | TGI [6]: > 100 µM | GI50 [7]: 68.2 µM | TGI [7]: > 100 µM | GI50 [8]: > 100 µM | TGI [8]: > 100 µM | GI50 [9]: 63.7 µM | TGI [9]: > 100 µM | GI50 [10]: 28.7 µM | TGI [10]: > 100 µM | GI50 [11]: > 100 µM | TGI [11]: > 100 µM | GI50 [12]: 10.4 µM | TGI [12]: 29.7 µM | GI50 [13]: 10.4 µM | TGI [13]: 49.8 µM | GI50 [14]: > 100 µM | TGI [14]: > 100 µM | GI50 [15]: > 100 µM | TGI [15]: > 100 µM | GI50 [16]: > 100 µM | TGI [16]: > 100 µM | GI50 [17]: > 100 µM | TGI [17]: > 100 µM | GI50 [18]: > 100 µM | TGI [18]: > 100 µM | GI50 [19]: 33.5 µM | TGI [19]: > 100 µM | GI50 [20]: 74.7 µM | TGI [20]: > 100 µM | GI50 [21]: > 100 µM | TGI [21]: > 100 µM | GI50 [22]: 68.1 µM | TGI [22]: > 100 µM | GI50 [23]: 81 µM | TGI [23]: > 100 µM | GI50 [24]: > 100 µM | TGI [24]: > 100 µM | GI50 [25]: 9.62 µM | TGI [25]: 33.3 µM | GI50 [26]: 4.06 µM | TGI [26]: 14.2 µM | GI50 [27]: > 100 µM | TGI [27]: > 100 µM | GI50 [28]: 59.7 µM | TGI [28]: > 100 µM | GI50 [29]: > 100 µM | TGI [29]: > 100 µM | GI50 [30]: 5.93 µM | TGI [30]: 56.1 µM | GI50 [31]: > 100 µM | TGI [31]: > 100 µM | GI50 [32]: 34.9 µM | TGI [32]: > 100 µM | GI50 [33]: 7.79 µM | TGI [33]: > 100 µM | GI50 [34]: > 100 µM | TGI [34]: > 100 µM | GI50 [35]: > 100 µM | TGI [35]: > 100 µM | GI50 [36]: 22.6 µM | TGI [36]: > 100 µM | GI50 [37]: > 100 µM | TGI [37]: > 100 µM | GI50 [38]: 46.6 µM | TGI [38]: > 100 µM | GI50 [39]: > 100 µM | TGI [39]: > 100 µM | GI50 [40]: 44.5 µM | TGI [40]: > 100 µM | GI50 [41]: 11.4 µM | TGI [41]: > 100 µM | GI50 [42]: 27.3 µM | TGI [42]: > 100 µM | GI50 [43]: > 100 µM | TGI [43]: > 100 µM | GI50 [44]: 74.2 µM | TGI [44]: > 100 µM | GI50 [45]: 32.3 µM | TGI [45]: > 100 µM | GI50 [46]: 46.1 µM | TGI [46]: > 100 µM | GI50 [47]: 46.9 µM | TGI [47]: > 100 µM | GI50 [48]: 94.7 µM | TGI [48]: > 100 µM | GI50 [49]: 0.364 µM | TGI [49]: 2.45 µM | GI50 [50]: > 100 µM | TGI [50]: > 100 µM | GI50 [51]: > 100 µM | TGI [51]: > 100 µM | GI50 [52]: 25.8 µM | TGI [52]: > 100 µM | GI50 [53]: > 100 µM | TGI [53]: > 100 µM | GI50 [54]: > 100 µM | TGI [54]: > 100 µM

Cc1ccc(-c2cc(C(F)(F)F)nn2-c2ccc(S(N)(=O)=O)cc2)cc1
GI50 [55]: 14.1 µM | TGI [55]: 27.4 µM | GI50 [1]: 15.6 µM | TGI [1]: 28.9 µM | GI50 [2]: 14.4 µM | TGI [2]: 27.5 µM | GI50 [3]: 15.1 µM | TGI [3]: 28.3 µM | GI50 [4]: 15.9 µM | TGI [4]: 29.3 µM | GI50 [5]: 16.8 µM | TGI [5]: 30.5 µM | GI50 [6]: 16.2 µM | TGI [6]: 29.7 µM | GI50 [7]: 15 µM | TGI [7]: 28.2 µM | GI50 [8]: 14.2 µM | TGI [8]: 27.2 µM | GI50 [9]: 14.9 µM | TGI [9]: 28.1 µM | GI50 [10]: 15.2 µM | TGI [10]: 28.5 µM | GI50 [11]: 14.7 µM | TGI [11]: 27.9 µM | GI50 [12]: 20.5 µM | TGI [12]: 34.8 µM | GI50 [13]: 15.3 µM | TGI [13]: 28.6 µM | GI50 [14]: 16 µM | TGI [14]: 29.4 µM | GI50 [15]: 14.5 µM | TGI [15]: 27.7 µM | GI50 [16]: 16.1 µM | TGI [16]: 29.6 µM | GI50 [17]: 16.3 µM | TGI [17]: 29.8 µM | GI50 [18]: 15.8 µM | TGI [18]: 29.2 µM | GI50 [19]: 17.6 µM | TGI [19]: 31.4 µM | GI50 [20]: 19 µM | TGI [20]: 33.1 µM | GI50 [21]: 16.2 µM | TGI [21]: 29.8 µM | GI50 [22]: 14.2 µM | TGI [22]: 27.2 µM | GI50 [23]: 15.7 µM | TGI [23]: 29.2 µM | GI50 [24]: 19.3 µM | TGI [24]: 33.4 µM | GI50 [25]: 13.6 µM | TGI [25]: 26.5 µM | GI50 [26]: 9.05 µM | TGI [26]: 21.3 µM | GI50 [27]: 13 µM | TGI [27]: 25.6 µM | GI50 [28]: 15.6 µM | TGI [28]: 29 µM | GI50 [29]: 15.9 µM | TGI [29]: 29.4 µM | GI50 [30]: 15.3 µM | TGI [30]: 28.7 µM | GI50 [31]: 13.6 µM | TGI [31]: 26.5 µM | GI50 [32]: 15.7 µM | TGI [32]: 29.1 µM | GI50 [33]: 14.3 µM | TGI [33]: 27.4 µM | GI50 [34]: 11.8 µM | TGI [34]: 24.1 µM | GI50 [35]: 16.2 µM | TGI [35]: 29.7 µM | GI50 [36]: 15.6 µM | TGI [36]: 28.9 µM | GI50 [37]: 14.6 µM | TGI [37]: 27.8 µM | GI50 [38]: 12.1 µM | TGI [38]: 24.5 µM | GI50 [39]: 14.4 µM | TGI [39]: 27.4 µM | GI50 [40]: 16.4 µM | TGI [40]: 30 µM | GI50 [41]: 16.5 µM | TGI [41]: 30.1 µM | GI50 [42]: 16.7 µM | TGI [42]: 30.4 µM | GI50 [43]: 17.6 µM | TGI [43]: 31.4 µM | GI50 [44]: 13.8 µM | TGI [44]: 26.7 µM | GI50 [45]: 17.1 µM | TGI [45]: 30.9 µM | GI50 [46]: 15.2 µM | TGI [46]: 28.6 µM | GI50 [47]: 16.6 µM | TGI [47]: 30.4 µM | GI50 [48]: 10.8 µM | TGI [48]: 23 µM | GI50 [49]: 29 µM | TGI [49]: 43.8 µM | GI50 [56]: 17.1 µM | TGI [56]: 30.9 µM | GI50 [50]: 11.4 µM | TGI [50]: 23.7 µM | GI50 [51]: 16.7 µM | TGI [51]: 30.4 µM | GI50 [52]: 16 µM | TGI [52]: 29.5 µM | GI50 [53]: 16.6 µM | TGI [53]: 30.3 µM | GI50 [54]: 18.4 µM | TGI [54]: 32.4 µM | GI50 [57]: 14.7 µM | TGI [57]: 27.9 µM

— PubChem BioAssay (NCI)
